Results from US10168342B2, “Lipid probes and uses thereof” (THE SCRIPPS RESEARCH INSTITUTE, priority 2015, dated 2019).

Experiments:
Type in all cases: cell-based
[1] = molecular target: T1, lipid-binding proteins in Neuro2a cells (Mus musculus, UniProt Q8BVU5); assay: SILAC MS mapping of lipid probe targets (probe-versus-No UV, probe-versus-probe) in Neuro2a cells; conditions: protein Nudt9, AEA-DA probe, No UV control
T1 construct: endogenous in cells; host or cells: Neuro2a

[2] = molecular target: T2, lipid-binding proteins in Neuro2a cells (Mus musculus, UniProt Q9CPQ3); assay: as above; conditions: AEA-DA probe vs NoUV
T2 construct: endogenous in cells; host or cells: Neuro2a
T2 sequence (Q9CPQ3 whole entry): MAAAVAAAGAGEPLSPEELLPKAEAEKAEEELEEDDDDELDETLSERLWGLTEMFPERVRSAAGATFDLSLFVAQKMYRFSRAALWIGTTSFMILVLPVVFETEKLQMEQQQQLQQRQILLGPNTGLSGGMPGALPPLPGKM

[3] = molecular target: T3, AEA-DA-modified peptides in Neuro2a cells (Mus musculus, UniProt Q9D771); assay: isoTOP-ABPP mapping of AEA-DA-modified peptides in Neuro2a cells; conditions: AEA-DA-modified peptide TMEM206 Q9D771 247-260, SEQ ID NO 113; probe 100 μM, 12 replicates
T3 construct: endogenous in cells; host or cells: Neuro2a
T3 sequence (Q9D771 whole entry): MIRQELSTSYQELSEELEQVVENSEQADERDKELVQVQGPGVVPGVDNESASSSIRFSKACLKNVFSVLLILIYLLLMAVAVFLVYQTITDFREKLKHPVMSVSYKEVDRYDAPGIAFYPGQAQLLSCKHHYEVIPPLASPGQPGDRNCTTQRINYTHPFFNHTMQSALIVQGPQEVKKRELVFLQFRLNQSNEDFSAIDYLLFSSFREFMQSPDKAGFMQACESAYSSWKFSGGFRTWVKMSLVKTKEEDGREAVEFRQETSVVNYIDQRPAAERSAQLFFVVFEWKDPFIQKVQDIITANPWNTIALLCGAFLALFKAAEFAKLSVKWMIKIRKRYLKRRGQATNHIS

[4] = molecular target: T4, AEA-DA-modified peptides in Neuro2a cells (Mus musculus, UniProt Q9CZN7); assay: as above; conditions: probe 100 μM, 12 replicates
T4 construct: endogenous in cells; host or cells: Neuro2a
T4 sequence (Q9CZN7 30-504): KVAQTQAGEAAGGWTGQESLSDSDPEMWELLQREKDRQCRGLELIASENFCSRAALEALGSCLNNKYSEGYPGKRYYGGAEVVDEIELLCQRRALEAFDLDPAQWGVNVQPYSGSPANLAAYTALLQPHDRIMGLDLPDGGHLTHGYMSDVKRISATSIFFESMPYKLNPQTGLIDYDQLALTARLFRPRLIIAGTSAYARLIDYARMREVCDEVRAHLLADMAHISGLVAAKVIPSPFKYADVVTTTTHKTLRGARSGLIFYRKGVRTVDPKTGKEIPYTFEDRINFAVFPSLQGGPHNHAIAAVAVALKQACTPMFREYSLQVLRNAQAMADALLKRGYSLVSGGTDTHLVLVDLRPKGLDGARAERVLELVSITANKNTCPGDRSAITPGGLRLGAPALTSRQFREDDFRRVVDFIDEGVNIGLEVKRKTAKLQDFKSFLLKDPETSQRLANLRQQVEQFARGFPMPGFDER

[5] = molecular target: T5, AEA-DA-modified peptides in Neuro2a cells (Mus musculus, UniProt Q8R0X7); assay: as above; conditions: probe 100 μM, 12 replicates
T5 construct: endogenous in cells; host or cells: Neuro2a
T5 sequence (Q8R0X7 whole entry): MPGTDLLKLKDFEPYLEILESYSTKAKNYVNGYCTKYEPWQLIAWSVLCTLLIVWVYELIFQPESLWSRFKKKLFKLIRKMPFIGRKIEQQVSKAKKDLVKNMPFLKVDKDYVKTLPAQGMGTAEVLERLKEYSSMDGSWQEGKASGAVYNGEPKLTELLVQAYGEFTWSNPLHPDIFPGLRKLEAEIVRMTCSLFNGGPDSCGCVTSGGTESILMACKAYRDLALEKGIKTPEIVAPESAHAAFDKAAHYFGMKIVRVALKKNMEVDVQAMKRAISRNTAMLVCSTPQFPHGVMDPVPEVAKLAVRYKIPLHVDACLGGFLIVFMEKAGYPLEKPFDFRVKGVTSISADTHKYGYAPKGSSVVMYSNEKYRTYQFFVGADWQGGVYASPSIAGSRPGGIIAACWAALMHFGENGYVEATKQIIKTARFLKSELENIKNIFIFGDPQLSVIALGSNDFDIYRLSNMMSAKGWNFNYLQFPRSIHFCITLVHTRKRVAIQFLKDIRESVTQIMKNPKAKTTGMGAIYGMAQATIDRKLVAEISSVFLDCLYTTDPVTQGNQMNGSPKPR

[6] = molecular target: T6, lipid-binding proteins in A549 cells (Homo sapiens, UniProt Q9NS69); assay: SILAC MS mapping of UV-dependent lipid probe targets in A549 cells; conditions: AEA-DA probe vs NoUV
T6 construct: endogenous in cells; host or cells: A549 (PMA-stimulated for the PTGS2 experiments)
T6 sequence (Q9NS69 whole entry): as the sequence (Q9CPQ3 whole entry) above, with L14Q, E17D, A23G, E24D, A28P, D38E, P137S, M142I counted along it

[7] = molecular target: T7, lipid-binding proteins in A549 cells (Homo sapiens, UniProt Q86XL3); assay: as above; conditions: AEA-DA probe vs NoUV
T7 construct: endogenous in cells; host or cells: A549 (PMA-stimulated for the PTGS2 experiments)

[8] = molecular target: T8, lipid-binding proteins in A549 cells (Homo sapiens, UniProt P30519); assay: as above; conditions: AEA-DA probe vs NoUV
T8 construct: endogenous in cells; host or cells: A549 (PMA-stimulated for the PTGS2 experiments)
T8 sequence (P30519 whole entry): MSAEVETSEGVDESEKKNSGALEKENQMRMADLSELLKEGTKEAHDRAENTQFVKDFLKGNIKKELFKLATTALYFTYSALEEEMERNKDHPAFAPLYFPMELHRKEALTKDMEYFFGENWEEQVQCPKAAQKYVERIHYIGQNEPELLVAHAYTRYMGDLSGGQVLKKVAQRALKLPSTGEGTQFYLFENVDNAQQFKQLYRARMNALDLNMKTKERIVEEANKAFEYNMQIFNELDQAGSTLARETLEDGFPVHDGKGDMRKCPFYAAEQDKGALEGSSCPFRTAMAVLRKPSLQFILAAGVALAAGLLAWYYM

[9] = molecular target: T9, lipid-binding proteins in A549 cells (Homo sapiens, UniProt O15173); assay: as above; conditions: AEA-DA probe vs NoUV
T9 construct: endogenous in cells; host or cells: A549 (PMA-stimulated for the PTGS2 experiments)

[10] = molecular target: T10, lipid-binding proteins in A549 cells (Homo sapiens, UniProt Q9HAW7); assay: as above; conditions: AEA-DA probe vs NoUV
T10 construct: endogenous in cells; host or cells: A549 (PMA-stimulated for the PTGS2 experiments)
T10 sequence (Q9HAW7 26-530): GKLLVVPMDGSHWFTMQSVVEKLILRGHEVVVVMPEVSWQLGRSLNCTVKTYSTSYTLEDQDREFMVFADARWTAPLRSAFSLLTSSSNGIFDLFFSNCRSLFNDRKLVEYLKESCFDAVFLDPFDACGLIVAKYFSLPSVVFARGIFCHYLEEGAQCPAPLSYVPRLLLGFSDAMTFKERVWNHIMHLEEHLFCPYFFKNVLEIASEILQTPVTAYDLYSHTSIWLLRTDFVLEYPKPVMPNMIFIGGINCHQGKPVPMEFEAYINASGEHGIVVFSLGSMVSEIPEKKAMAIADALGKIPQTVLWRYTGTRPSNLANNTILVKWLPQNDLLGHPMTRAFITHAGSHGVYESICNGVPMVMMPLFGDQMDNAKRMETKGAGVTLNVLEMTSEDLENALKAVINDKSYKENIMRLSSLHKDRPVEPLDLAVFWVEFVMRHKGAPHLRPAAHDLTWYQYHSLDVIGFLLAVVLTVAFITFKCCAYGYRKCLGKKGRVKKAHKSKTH

[11] = molecular target: T11, lipid-binding proteins in A549 cells (Homo sapiens, UniProt P07602); assay: as above; conditions: AEA-DA probe vs NoUV
T11 construct: endogenous in cells; host or cells: A549 (PMA-stimulated for the PTGS2 experiments)
T11 sequence (P07602 60-524): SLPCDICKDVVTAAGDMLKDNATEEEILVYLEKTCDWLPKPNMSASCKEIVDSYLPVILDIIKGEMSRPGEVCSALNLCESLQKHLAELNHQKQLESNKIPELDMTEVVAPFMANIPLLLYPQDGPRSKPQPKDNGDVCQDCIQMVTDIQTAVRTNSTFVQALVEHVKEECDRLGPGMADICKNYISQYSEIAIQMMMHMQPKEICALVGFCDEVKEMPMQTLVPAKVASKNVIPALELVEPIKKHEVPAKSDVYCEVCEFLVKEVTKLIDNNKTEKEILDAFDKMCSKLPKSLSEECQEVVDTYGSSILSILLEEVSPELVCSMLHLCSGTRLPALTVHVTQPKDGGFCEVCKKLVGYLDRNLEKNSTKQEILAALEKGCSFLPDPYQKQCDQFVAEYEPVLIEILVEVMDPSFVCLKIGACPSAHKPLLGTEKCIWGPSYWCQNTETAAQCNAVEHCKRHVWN

[12] = molecular target: T12, lipid-binding proteins in A549 cells (Homo sapiens, UniProt P45880); assay: as above; conditions: AEA-DA probe vs NoUV
T12 construct: endogenous in cells; host or cells: A549 (PMA-stimulated for the PTGS2 experiments)

[13] = molecular target: T13, lipid-binding proteins in A549 cells (Homo sapiens, UniProt Q53GQ0); assay: as above; conditions: AEA-DA probe vs NoUV
T13 construct: endogenous in cells; host or cells: A549 (PMA-stimulated for the PTGS2 experiments)
T13 sequence (Q53GQ0 whole entry): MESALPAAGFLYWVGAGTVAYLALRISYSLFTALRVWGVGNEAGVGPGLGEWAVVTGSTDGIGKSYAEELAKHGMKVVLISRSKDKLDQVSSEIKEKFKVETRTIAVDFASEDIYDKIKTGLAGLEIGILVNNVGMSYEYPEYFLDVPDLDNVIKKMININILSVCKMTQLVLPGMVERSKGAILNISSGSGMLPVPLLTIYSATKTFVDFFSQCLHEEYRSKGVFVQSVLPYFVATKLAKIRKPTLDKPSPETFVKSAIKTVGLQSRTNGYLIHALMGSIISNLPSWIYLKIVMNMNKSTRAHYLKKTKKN

[14] = molecular target: T14, lipid-binding proteins in A549 cells (Homo sapiens, UniProt P21796); assay: as above; conditions: AEA-DA probe vs NoUV
T14 construct: endogenous in cells; host or cells: A549 (PMA-stimulated for the PTGS2 experiments)
T14 sequence (P21796 whole entry): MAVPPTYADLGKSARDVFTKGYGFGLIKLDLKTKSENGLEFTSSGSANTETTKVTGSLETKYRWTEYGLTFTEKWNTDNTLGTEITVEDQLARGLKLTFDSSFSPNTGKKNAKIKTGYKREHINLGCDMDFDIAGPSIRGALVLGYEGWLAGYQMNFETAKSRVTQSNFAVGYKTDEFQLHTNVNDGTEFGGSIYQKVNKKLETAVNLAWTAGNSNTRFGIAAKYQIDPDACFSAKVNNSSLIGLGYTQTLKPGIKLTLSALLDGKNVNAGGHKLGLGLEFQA

[15] = molecular target: T15, lipid-binding proteins in A549 cells (Homo sapiens, UniProt Q14534); assay: as above; conditions: AEA-DA probe vs NoUV
T15 construct: endogenous in cells; host or cells: A549 (PMA-stimulated for the PTGS2 experiments)
T15 sequence (Q14534 whole entry): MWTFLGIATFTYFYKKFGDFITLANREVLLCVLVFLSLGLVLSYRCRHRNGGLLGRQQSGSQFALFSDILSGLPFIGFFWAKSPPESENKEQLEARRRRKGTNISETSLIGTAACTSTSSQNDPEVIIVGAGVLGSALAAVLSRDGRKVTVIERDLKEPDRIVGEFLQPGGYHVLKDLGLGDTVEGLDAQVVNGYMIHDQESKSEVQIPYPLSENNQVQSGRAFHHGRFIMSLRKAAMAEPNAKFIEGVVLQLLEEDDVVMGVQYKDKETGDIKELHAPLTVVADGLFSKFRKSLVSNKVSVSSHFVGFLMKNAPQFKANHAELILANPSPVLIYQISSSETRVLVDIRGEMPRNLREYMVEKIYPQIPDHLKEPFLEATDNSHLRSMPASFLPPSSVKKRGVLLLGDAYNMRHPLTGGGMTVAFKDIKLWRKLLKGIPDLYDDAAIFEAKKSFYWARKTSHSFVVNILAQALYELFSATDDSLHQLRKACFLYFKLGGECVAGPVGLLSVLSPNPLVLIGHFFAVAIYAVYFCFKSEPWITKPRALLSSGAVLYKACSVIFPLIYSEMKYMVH

[16] = molecular target: T16, lipid-binding proteins in A549 cells (Homo sapiens, UniProt P67812); assay: as above; conditions: AEA-DA probe vs NoUV
T16 construct: endogenous in cells; host or cells: A549 (PMA-stimulated for the PTGS2 experiments)
T16 sequence (P67812 whole entry): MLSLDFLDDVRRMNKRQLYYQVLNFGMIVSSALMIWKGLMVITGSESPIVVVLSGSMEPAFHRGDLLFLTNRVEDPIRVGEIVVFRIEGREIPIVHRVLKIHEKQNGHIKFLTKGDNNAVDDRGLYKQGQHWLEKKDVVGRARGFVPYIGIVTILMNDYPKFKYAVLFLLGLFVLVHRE

[17] = molecular target: T17, lipid-binding proteins in A549 cells (Homo sapiens, UniProt O95470); assay: as above; conditions: AEA-DA probe vs NoUV
T17 construct: endogenous in cells; host or cells: A549 (PMA-stimulated for the PTGS2 experiments)

[18] = molecular target: T18, lipid-binding proteins in A549 cells (Homo sapiens, UniProt Q9H4I3); assay: as above; conditions: AEA-DA probe vs NoUV
T18 construct: endogenous in cells; host or cells: A549 (PMA-stimulated for the PTGS2 experiments)
T18 sequence (Q9H4I3 whole entry): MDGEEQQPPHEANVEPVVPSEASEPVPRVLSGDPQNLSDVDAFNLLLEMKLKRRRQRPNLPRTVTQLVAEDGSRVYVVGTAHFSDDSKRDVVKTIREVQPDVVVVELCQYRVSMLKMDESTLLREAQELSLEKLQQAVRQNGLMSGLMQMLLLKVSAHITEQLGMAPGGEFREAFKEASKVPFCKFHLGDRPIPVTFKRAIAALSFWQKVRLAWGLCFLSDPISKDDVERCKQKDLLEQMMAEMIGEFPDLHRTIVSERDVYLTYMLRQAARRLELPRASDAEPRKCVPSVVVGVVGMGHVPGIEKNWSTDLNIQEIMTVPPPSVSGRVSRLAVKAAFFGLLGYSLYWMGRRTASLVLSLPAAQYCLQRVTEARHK

T1 sequence (Q8BVU5 47-350): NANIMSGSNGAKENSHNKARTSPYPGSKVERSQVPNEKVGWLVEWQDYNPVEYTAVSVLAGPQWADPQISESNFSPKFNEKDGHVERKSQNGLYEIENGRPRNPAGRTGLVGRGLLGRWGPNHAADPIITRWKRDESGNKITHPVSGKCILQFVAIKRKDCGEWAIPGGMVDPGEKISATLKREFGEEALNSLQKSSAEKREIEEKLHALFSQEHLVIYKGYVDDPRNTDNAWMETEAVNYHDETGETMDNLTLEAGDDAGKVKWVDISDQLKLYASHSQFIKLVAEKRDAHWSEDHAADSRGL

C#CCCCC1(CC/C=C\C/C=C\C/C=C\CCCC(=O)NCCO)N=N1 [AEA-DA, (5Z,8Z,11Z)-N-(2-hydroxyethyl)-14-(3-(pent-4-yn-1-yl)-3H-diazirin-3-yl)tetradeca-5,8,11-trienamide]
SILAC ratio, AEA-DA probe versus No UV [1]: 20.0
SILAC ratio, TOMM22 (Q9CPQ3) [2]: 20.0
Times observed [3]: 2
Times observed ([4]; AEA-DA-modified peptide SHMT2 Q9CZN7 105-122, SEQ ID NO 101): 9
Times observed ([4]; AEA-DA-modified peptide SHMT2 Q9CZN7 161-182, SEQ ID NO 102): 3
Times observed ([5]; AEA-DA-modified peptide SGPL1 Q8R0X7 9-26, SEQ ID NO 100): 4
Times observed ([5]; AEA-DA-modified peptide SGPL1 Q8R0X7 519-536, SEQ ID NO 99): 12
SILAC ratio, TOMM22 (Q9CPQ3) [6]: 20.0
SILAC ratio, ANKLE2 (Q86XL3) [7]: 20.0
SILAC ratio, HMOX2 (P30519) [8]: 20.0
SILAC ratio, PGRMC2 (Q80UU9) [9]: 20.0
SILAC ratio, UGT1A7 (Q9HAW7) [10]: 20.0
SILAC ratio, PSAP (P07602) [11]: 20.0
SILAC ratio, VDAC2 (P45880) [12]: 20.0
SILAC ratio, HSD17B12 (Q53GQ0) [13]: 20.0
SILAC ratio, VDAC1 (P21796) [14]: 20.0
SILAC ratio, SQLE (Q14534) [15]: 20.0
SILAC ratio, SEC11A (P67812) [16]: 14.0
SILAC ratio, SGPL1 (O95470) [17]: 20.0
SILAC ratio, TRABD (Q99JY4) [18]: 20.0
